Reference: patent US10364249B2, “Azatriangulenium salts as PET-quenched fluorescent probes” (KØBENHAVNS UNIVERSITET, priority 2013, dated 2019)
Where two headings read alike, the source gives them in different places.

How the values were obtained:
Assay type in all cases: physicochemical
[1] = Ratiometric emission of pH sensor spot with dyes bound into SOL-GEL-matrix at different pH; details: for pKa from ratiometric emission signal: with R1C
Method: FIG. 9. Emission spectra of a pH sensor spot loaded with I1C (signal at ca. 590 nm) and R1C (signal at ca. 650 nm) covalently bound into the SOL-GEL-matrix recorded at different pH values (solid line: pH 2.48, circles: pH 6.26, crosses: 9.89).
(§1) Emission spectroscopy was performed in front-face set-up for sensor spot samples and in a conventional L-shape set-up for measuremetns in solution. A Perkin-Elmer LS50B and a Horiba Fluorolog 3 were used interchangeably. Intensity based sensor measurements were only performed on the LS50B platform. Fluorescence lifetime based sensor measurements were only performed on the Fluorolog 3. Absorption spectroscopy was performed on a Perkin Elmer Lambda1050, with integrating sphere (for sensor spots) and with a 3-detector module for solution samples.
The compounds according to 6 or 7 are mixed into either the ETEOS or the GPTMS gel component 1 h after mixing of the materials described. Subsequently, the ETEOS or the GPTMS gel components are mixed. The two components are then mixed in 1:1 molar ratio and left at a stirring table for no less than 3 days. The dyes 6 or 7 are added in an amount so that a final concentration of 0.1 mM of dye is obtained in the final GPTMS-ETEOS mixture. The resulting GPTMS-ETEOS-dye mixture is then deposited and cured at 110° C. for 3-4 hours.

[2] = Absorption and emission spectra, photophysical properties of pH-responsive triangulenium dyes in solution; design: λmax (wavelength of maximum absorption) / λem (wavelength of maximum emission): unit not given here; details: for pKa / λem (wavelength of maximum emission) / λmax (wavelength of maximum absorption): in solution; for ϕfl- (φfl-off, fluorescence quantum yield, off-state): off-state (quenched); for ϕfl- (φfl-on, fluorescence quantum yield, on-state): on-state (not quenched)
Method: Absorption and emission spectrum of the prepared triangulenium compounds of Formula (I) were measured and their photophysical properties are compiled in table 2.
pKa is −log10 of the acid dissociation constant, Ka, and is a quantitative measure of the strength of an acid in solution. λmax denotes the wavelength wherein maximum absorption is obtained. λem denotes the wavelength wherein maximum emission is obtained. φfl-on and φfl-off are the fluorescence quantum yields, wherein the responsive fluorescent compounds are in their on-state (not quenched) and off-state (quenched), respectively. Ion/Ioff is the ratio between φfl-on and φfl-off.
All disclosed absorption and emission spectrum measurement shown herein are measured as follows:
as §1

[3] = Comparison of solution and sol-gel spectra and titration curves of 4g; details: upon attaching to the matrix material
Text: The arrow indicates the change from pH˜11 to pH˜1.

[4] = Readout and chemical stability of optical sensor of DMQA+ and 4g in ORMOSIL matrix
Method: In order to validate the sensor performance, different stability tests were performed. One critical parameter for an optical sensor is known to be the read-out stability. Another critical parameter for optical sensors is the chemical stability.

[5] = Photophysical properties and pKa of DAOTA dyes, fluorescence intensity at different pH, 6% DMSO in PBS buffer; details: for pKa: 6% DMSO in PBS buffer solution, normalized fluorescence intensity at 588 nm at different pH, sigmoidal fits (FIG. 8)
Text: FIG. 6. Absorption spectra of MR-68_DAOTA measured in 6% DMSO in PBS buffer solution. Circles (o) represent the absorption spectrum of the protonated form (measured at acidic conditions) and crosses (x) represent the absorption spectrum of the deprotonated form (measured at basic conditions).
FIG. 7. Emission spectra of MR-68_DAOTA measured in 6% DMSO in PBS buffer solution. Circles (o) represent the absorption spectrum of the protonated form (measured at acidic conditions) and crosses (x) represent the absorption spectrum of the deprotonated form (measured at basic conditions).
FIG. 8. […] The solid lines are sigmoidal fits to the experimental data.
as §1

[6] = covalently bound into the SOL-GEL-matrix
[7] = first value of cell, protonated form
[8] = second value of cell, deprotonated form

| Molecule | Ion/Io (Ion/Ioff, ratio between φfl-on and φfl-off) [2] | pKa [2] | λem (wavelength of maximum emission) [2] | λmax (wavelength of maximum absorption) [2] | ϕfl- (φfl-off, fluorescence quantum yield, off-state) [2] [%] | ϕfl- (φfl-on, fluorescence quantum yield, on-state) [2] [%] | η, quenching efficiency of the fluorescence intensity [5] [%] | pKa [5] | εmax, molar absorption coefficient [5, 7] | λ max, wavelength at the maximum fluorescence intensity [5, 7] | λabs max, wavelength at maximum absorption of the lowest energy transition [5, 7] [nm] | εmax, molar absorption coefficient [5, 8] | λ max, wavelength at the maximum fluorescence intensity [5, 8] | λabs max, wavelength at maximum absorption of the lowest energy transition [5, 8] [nm] | further results |
| --- | --- | --- | --- | --- | --- | --- | --- | --- | --- | --- | --- | --- | --- | --- | --- |
| 8-(1-methyl-1-propyl-3-(3-(triethoxysilyl)propyl)urea)-4,8-diazatriangulenium-4-(4-(methylsulfonyl)phenolate) [Compound I2C] |  |  |  |  |  |  |  |  |  |  |  |  |  |  | pKa from ratiometric emission signal [1, 6]: 5.4 |
| Oc1ccc(N2c3cccc4c3C3c5c(cccc5Oc5cccc2c53)O4)cc1 [Compound 3d] | ~50 | 8.3 | 563 | 540 | >0.5 | 2 |  |  |  |  |  |  |  |  |  |
| CCCCCCCCCCCCN1c2cccc3c2C2c4c(cccc4N(c4cc(S(C)(=O)=O)ccc4O)c4cccc1c42)O3 (stereo not drawn) [Compound 4g, 4-dodecyl-8-(2-hydroxy-5-(methylsulfonyl)phenyl)-4,8-diaza-12-oxa-4,8,12,12c-tetrahydro-dibenzo[cd,mn]-pyrenylium] | ~100 | 3.4 | 590 | 557 | 6 | 26 |  |  |  |  |  |  |  |  | spectral change and pH response, solution versus sol-gel [3]: spectral change is minimal while the response to changing pH is maintained; responsiveness of ratiometric readout signal ([4]; constant illumination, low and high pH): maintains its responsiveness; ratiometric readout signal stable for ([4]; high and low pH): at least 16 hours |
| Oc1ccccc1N1c2cccc3c2C2c4c(cccc4Oc4cccc1c42)O3 [Compound 3b, N-(2-hydroxyphenyl)-azadioxatriangulenium tetrafluoroborat] | ~50 | 6.9 | 558 | 541 | >0.5 | 8 |  |  |  |  |  |  |  |  |  |
| CN1c2cccc3c2C2c4c(cccc4N(c4cc(O)cc(C(F)(F)F)c4)c4cccc1c42)O3 (stereo not drawn) [MR-67.1_DAOTA] |  |  |  |  |  |  | 99 | 7.3 | 14700 M⁻¹ cm⁻¹ | 586 nm | 553 | 14300 M⁻¹ cm⁻¹ | 588 nm | 557 |  |
| CN1c2cccc3c2C2c4c(cccc4N(c4cc(C(F)(F)F)ccc4O)c4cccc1c42)O3 (stereo not drawn) [MR-66_DAOTA] |  |  |  |  |  |  | >99 | 6.2 | 16600/16600 M^−1cm^−1 | 585 nm | 553 | 16600/16600 M^−1cm^−1 | 588 nm | 558 |  |
| CCCCCCCCCCCCn1c2cccc3oc4cccc5c4[c+](c32)c2c1cccc2n5-c1cc(C(F)(F)F)ccc1O [Compound 4h, N-(2-hydroxy-5-(trifluoromethyI)phenyl)-N-dodecyl-diazaoxatriangulenium hexafluorophosphat] | ~50 | 6.5 | 590 | 557 |  |  |  |  |  |  |  |  |  |  |  |
| CN1c2cccc3c2C2c4c(cccc4N(c4cccc(O)c4)c4cccc1c42)O3 (stereo not drawn) |  |  |  |  |  |  | 99 | 8.5 | 13600 M⁻¹ cm⁻¹ | 590/590 nm | 554 | 13500 M⁻¹ cm⁻¹ | 590/590 nm | 559 |  |
| 8-(1-methyl-1-propyl-3-(3-(triethoxysilyl)propyl)urea)-4,8-diazatriangulenium-4-(4-(trifluoromethyl)phenolate) [Compound I1C] |  |  |  |  |  |  |  |  |  |  |  |  |  |  | emission signal ([1]; pH sensor spot, covalently bound into the SOL-GEL-matrix): ca. 590 nm; pKa from ratiometric emission signal [1, 6]: 6.3 |
| CCO[Si](CCCNC(=O)N(C)CCCn1c2cccc(OC)c2[c+]2c3c(OC)cccc3n(CCCN(C)C(=O)NCCC[Si](OCC)(OCC)OCC)c3cccc1c32)(OCC)OCC [Compound R1C, 5,9-bis(4,4-diethoxy-10-methyl-9-oxo-3-oxa-8,10-diaza-4-silatridecan-13-yl)-1,13-dimethoxy-5,9-dihydro-13bH-quinolino[2,3,4-kl]acridin-13b-ylium hexafluorophosphate] |  |  |  |  |  |  |  |  |  |  |  |  |  |  | emission signal [1]: ca. 650 nm |
| CN1c2cccc3c2C2c4c(cccc4N(c4ccc(O)cc4)c4cccc1c42)O3 (stereo not drawn) [MR-93_DAOTA] |  |  |  |  |  |  | >99 | 8.6 | 14400 M⁻¹ cm⁻¹ | 591/591 nm | 555 | 14100 M⁻¹ cm⁻¹ | 591/591 nm | 560 |  |
| CCCCCCCCCCCCN1c2cccc3c2C2c4c(cccc4N(c4cc(F)ccc4O)c4cccc1c42)O3 (stereo not drawn) [Compound 4f, 4-dodecyl-8-(5-fluoro-2-hydroxyphenyl)-4,8-diaza-12-oxa-4,8,12,12c-tetrahydro-dibenzo[cd,mn]-pyrenylium] |  |  | 590 | 557 |  |  |  |  |  |  |  |  |  |  |  |
| Oc1cccc(N2c3cccc4c3C3c5c(cccc5Oc5cccc2c53)O4)c1 [Compound 3c, N-(3-hydroxyphenyl)-azadioxatriangulenium tetrafluoroborat] | ~50 | 7.3 | 558 | 540 | >0.5 | 8 |  |  |  |  |  |  |  |  |  |
